Test results from ChEMBL document CHEMBL1148604 (J Med Chem, 2006).
≈ marks a conversion by molar mass, not a printed value. Calls of active or inactive are those of the source. The rule behind the calls is not given here.

Legend:
[1] = molecular target: T1, 3-oxoacyl-[acyl-carrier-protein] synthase 3 (Escherichia coli) (UniProt C3TDZ2); test: Inhibitory activity against FabH from Escherichia coli ANSI at 100 uM
T1 sequence (whole entry): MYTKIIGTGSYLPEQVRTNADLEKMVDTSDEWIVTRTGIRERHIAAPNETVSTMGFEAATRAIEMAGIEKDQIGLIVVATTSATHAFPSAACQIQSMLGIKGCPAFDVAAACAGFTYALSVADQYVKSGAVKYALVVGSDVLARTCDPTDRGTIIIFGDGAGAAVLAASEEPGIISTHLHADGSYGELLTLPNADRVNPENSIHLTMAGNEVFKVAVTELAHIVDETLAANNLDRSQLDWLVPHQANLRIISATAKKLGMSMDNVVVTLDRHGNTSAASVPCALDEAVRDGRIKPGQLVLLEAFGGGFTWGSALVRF

[2] = molecular target: T2, Mycobacterial beta-ketoacyl-[acyl-carrier-protein] synthase III (Mycobacterium tuberculosis) (UniProt P9WNG3); test: Inhibitory activity against FabH from Mycobacterium tuberculosis H37Rv at 100 uM
T2 sequence (whole entry): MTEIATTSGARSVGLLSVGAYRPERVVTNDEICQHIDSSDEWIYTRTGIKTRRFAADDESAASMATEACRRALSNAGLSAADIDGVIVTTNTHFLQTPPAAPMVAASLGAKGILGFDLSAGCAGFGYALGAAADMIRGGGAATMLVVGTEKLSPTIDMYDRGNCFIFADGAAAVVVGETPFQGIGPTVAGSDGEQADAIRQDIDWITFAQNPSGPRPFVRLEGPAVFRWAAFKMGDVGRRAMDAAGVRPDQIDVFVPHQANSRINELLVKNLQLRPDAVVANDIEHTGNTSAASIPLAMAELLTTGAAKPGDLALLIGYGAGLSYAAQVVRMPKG

[3] = molecular target: T3, 3-oxoacyl-[acyl-carrier-protein] synthase 1 (Mycobacterium tuberculosis) (UniProt P9WQD9); test: Inhibitory activity against KasA from Mycobacterium tuberculosis H37Rv at 100 uM
T3 sequence (whole entry): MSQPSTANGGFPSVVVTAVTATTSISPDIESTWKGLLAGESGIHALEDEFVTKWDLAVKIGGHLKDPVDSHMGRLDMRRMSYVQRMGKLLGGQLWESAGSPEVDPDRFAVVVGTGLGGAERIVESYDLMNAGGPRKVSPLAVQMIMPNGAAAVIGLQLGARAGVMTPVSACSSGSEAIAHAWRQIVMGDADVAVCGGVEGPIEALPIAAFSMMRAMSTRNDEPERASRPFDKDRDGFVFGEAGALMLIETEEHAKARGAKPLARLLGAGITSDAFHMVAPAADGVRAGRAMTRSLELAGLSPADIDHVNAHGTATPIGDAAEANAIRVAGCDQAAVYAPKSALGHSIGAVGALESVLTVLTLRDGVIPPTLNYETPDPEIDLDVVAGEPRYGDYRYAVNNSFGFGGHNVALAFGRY

Escherichia coli = test: Inhibitory activity against Escherichia coli ANSI; format: functional
[4] = system: Mycobacterium tuberculosis; test: Inhibitory activity against Mycobacterium tuberculosis H37Rv; format: functional
[5] = molecular target: T4, Mycobacterial beta-ketoacyl-[acyl-carrier-protein] synthase III (Mycobacterium tuberculosis, UniProt P9WNG3); test: Inhibitory activity against FabH from Mycobacterium tuberculosis H37Rv
T4 sequence (P9WNG3 whole entry): T2 sequence (whole entry)

[6] = molecular target: T5, 3-oxoacyl-[acyl-carrier-protein] synthase 2 (Mycobacterium tuberculosis) (UniProt P9WQD7); test: Inhibitory activity against KasB from Mycobacterium tuberculosis H37Rv at 100 uM
T5 sequence (whole entry): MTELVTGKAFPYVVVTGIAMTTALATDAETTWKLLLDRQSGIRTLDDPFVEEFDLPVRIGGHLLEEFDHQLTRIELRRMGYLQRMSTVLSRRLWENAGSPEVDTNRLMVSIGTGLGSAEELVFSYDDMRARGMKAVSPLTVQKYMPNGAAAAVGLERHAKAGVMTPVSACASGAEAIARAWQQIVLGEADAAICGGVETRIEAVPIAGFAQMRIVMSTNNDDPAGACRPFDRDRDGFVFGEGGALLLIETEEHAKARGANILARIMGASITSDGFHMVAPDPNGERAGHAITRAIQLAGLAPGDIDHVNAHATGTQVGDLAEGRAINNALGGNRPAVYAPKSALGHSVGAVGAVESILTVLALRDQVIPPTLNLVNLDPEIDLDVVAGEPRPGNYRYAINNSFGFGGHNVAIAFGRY

[7] = molecular target: T6, 3-oxoacyl-[acyl-carrier-protein] synthase 1 (Escherichia coli K-12) (UniProt P0A953); test: Inhibitory activity against FabB from Escherichia coli ANSI at 100 uM
T6 sequence (whole entry): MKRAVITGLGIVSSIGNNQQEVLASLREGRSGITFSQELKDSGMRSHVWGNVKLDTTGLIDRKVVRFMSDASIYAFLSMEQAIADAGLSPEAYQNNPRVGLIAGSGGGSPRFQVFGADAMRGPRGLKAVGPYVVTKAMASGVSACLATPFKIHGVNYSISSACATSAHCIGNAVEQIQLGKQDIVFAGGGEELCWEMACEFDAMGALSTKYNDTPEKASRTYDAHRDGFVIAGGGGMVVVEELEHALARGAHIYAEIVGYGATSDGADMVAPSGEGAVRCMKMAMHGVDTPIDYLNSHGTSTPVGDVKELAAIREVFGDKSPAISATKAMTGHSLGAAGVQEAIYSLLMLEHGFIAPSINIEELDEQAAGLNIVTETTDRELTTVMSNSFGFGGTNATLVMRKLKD

[8] = molecular target: T7, 3-oxoacyl-[acyl-carrier-protein] synthase 3 (Escherichia coli, UniProt C3TDZ2); test: Inhibitory activity against FabH from Escherichia coli ANSI
T7 sequence (C3TDZ2 whole entry): T1 sequence (whole entry)

wild-type apo-KasA = wild-type apo-KasA (Mycobacterium tuberculosis, UniProt P9WQD9); test: Inhibitory activity against KasA from Mycobacterium tuberculosis H37Rv
Fatty acid synthase = Fatty acid synthase (Homo sapiens, UniProt P49327); test: Inhibitory activity against human FAS1 at 100 uM
Chain of Fatty acid synthase (P49327 whole entry, looked up): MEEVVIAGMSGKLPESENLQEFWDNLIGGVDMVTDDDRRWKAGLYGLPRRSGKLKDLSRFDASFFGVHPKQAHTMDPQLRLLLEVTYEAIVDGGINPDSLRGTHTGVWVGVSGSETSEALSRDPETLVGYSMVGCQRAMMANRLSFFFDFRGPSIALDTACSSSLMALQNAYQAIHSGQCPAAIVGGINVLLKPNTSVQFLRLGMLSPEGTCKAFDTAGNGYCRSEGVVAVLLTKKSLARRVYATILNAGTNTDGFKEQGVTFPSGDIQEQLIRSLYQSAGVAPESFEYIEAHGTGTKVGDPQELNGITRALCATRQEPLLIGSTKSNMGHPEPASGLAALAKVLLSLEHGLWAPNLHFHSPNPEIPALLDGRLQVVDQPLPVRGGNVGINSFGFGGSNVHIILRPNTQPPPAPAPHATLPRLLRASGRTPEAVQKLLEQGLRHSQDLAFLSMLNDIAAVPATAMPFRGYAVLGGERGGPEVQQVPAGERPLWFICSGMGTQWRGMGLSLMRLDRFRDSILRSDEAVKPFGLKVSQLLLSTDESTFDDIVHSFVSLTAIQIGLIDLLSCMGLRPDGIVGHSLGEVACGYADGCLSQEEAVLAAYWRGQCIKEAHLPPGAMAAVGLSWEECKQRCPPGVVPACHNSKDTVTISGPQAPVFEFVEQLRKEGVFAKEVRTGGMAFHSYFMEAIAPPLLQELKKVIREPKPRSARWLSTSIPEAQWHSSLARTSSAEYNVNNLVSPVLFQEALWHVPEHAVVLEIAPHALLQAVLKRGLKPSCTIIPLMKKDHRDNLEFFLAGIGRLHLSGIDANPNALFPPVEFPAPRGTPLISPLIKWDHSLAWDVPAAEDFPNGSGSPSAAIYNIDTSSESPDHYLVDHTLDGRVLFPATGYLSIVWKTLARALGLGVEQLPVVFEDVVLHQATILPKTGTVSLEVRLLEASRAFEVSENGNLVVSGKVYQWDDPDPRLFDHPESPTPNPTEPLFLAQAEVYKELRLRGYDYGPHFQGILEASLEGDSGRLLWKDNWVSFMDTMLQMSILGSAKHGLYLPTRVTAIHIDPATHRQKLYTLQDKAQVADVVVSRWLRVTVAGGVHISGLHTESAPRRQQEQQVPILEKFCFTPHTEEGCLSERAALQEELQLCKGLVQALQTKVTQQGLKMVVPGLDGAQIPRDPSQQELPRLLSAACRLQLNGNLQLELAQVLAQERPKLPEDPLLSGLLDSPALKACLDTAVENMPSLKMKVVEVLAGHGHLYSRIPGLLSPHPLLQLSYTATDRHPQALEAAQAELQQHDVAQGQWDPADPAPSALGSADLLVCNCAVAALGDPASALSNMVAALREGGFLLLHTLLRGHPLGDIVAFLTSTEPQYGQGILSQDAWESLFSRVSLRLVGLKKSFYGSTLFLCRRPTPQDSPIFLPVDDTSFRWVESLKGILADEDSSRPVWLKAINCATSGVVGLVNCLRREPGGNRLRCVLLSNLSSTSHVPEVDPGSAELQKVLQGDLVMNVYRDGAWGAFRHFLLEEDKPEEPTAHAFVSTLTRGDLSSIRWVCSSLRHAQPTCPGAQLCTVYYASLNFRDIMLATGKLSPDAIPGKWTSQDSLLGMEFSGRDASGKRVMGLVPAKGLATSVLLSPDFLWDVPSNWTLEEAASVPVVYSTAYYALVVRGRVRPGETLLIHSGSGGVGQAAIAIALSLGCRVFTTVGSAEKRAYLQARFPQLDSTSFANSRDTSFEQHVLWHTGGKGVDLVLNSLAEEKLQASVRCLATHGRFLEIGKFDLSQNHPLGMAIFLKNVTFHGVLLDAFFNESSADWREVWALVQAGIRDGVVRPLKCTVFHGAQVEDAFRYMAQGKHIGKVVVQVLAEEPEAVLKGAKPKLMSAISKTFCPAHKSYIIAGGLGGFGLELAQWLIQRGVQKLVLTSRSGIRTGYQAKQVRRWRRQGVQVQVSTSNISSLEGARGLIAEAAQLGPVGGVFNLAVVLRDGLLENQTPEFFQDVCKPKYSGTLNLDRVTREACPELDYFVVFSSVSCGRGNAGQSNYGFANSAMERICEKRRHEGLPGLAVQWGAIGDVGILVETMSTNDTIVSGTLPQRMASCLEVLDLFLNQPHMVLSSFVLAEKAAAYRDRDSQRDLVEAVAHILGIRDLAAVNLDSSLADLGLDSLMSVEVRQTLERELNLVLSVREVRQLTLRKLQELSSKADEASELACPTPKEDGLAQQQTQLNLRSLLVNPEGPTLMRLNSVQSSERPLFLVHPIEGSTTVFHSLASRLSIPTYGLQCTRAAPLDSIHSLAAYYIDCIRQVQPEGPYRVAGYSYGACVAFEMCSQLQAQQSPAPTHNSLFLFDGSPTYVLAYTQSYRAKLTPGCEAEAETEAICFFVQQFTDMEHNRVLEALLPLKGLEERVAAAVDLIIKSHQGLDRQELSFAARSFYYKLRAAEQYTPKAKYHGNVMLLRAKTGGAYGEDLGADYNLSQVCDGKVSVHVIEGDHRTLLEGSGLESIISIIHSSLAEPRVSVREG

[9] = molecular target: T8, 3-oxoacyl-[acyl-carrier-protein] synthase 1 (Escherichia coli K-12, UniProt P0A953); test: Inhibitory activity against FabB from Escherichia coli ANSI
T8 sequence (P0A953 whole entry): T6 sequence (whole entry)

[10] = molecular target: T9, 3-oxoacyl-[acyl-carrier-protein] synthase 2 (Mycobacterium tuberculosis, UniProt P9WQD7); test: Inhibitory activity against KasB from Mycobacterium tuberculosis H37Rv
T9 sequence (P9WQD7 whole entry): T5 sequence (whole entry)

CC1=C(O)C(C)(C2CCCCC2)SC1=O (centres undefined)
inhibition [1]: inactive
inhibition [2]: < 30%
inhibition [3]: inactive
MIC (Escherichia coli): > 1000 µM
MIC [4]: 1000 µM (≈ 226 µg/mL)
IC50 [5]: > 100 µM
inhibition [6]: inactive
inhibition [7]: inactive

CC[C@H](C)CC1(C)SC(O)=C(C)C1=O (some centres undefined)
inhibition [1]: < 30%
inhibition [2]: inactive
inhibition [3]: inactive
MIC (Escherichia coli): > 1000 µM
MIC [4]: 500 µM (≈ 107 µg/mL)
IC50 [8]: > 100 µM
inhibition [6]: inactive
inhibition [7]: inactive

CC1=C(O)C(C)(CC2CC2)SC1=O (centres undefined)
inhibition [1]: < 30%
inhibition [2]: inactive
inhibition [3]: inactive
MIC (Escherichia coli): > 1000 µM
MIC [4]: > 1000 µM
IC50 [8]: > 100 µM
inhibition [6]: inactive
inhibition [7]: inactive

CC1=C(O)C(C)(Cc2ccc(C(F)(F)F)cc2)SC1=O (centres undefined)
inhibition [1]: inactive
inhibition [2]: < 30%
inhibition [3]: inactive
MIC (Escherichia coli): > 1000 µM
MIC [4]: 1000 µM (≈ 302 µg/mL)
IC50 [5]: > 100 µM
inhibition [6]: inactive
inhibition [7]: inactive

CC1=C(O)C(C)(Cc2ccc(Cl)c(Cl)c2)SC1=O (centres undefined)
inhibition [1]: < 30%
inhibition [2]: < 30%
inhibition [3]: inactive
MIC (Escherichia coli): > 1000 µM
MIC [4]: 500 µM (≈ 152 µg/mL)
IC50 [8]: > 100 µM
IC50 [5]: > 100 µM
inhibition [6]: inactive
inhibition [7]: inactive

CC1=C(O)SC(C)(C(C)C)C1=O (centres undefined)
inhibition [1]: inactive
inhibition [2]: inactive
inhibition [3]: inactive
MIC (Escherichia coli): > 1000 µM
MIC [4]: > 1000 µM
inhibition [6]: inactive
inhibition [7]: inactive

CCCCCCC1(C)SC(O)=C(C)C1=O (centres undefined)
inhibition [1]: inactive
inhibition [2]: inactive
inhibition [3]: inactive
MIC (Escherichia coli): > 1000 µM
MIC [4]: 1000 µM (≈ 228 µg/mL)
inhibition [6]: inactive
inhibition [7]: inactive

CC(C)=CCC1(C)SC(O)=C(C)C1=O (centres undefined)
inhibition [1]: inactive
inhibition [2]: inactive
inhibition [3]: < 30%
MIC (Escherichia coli): > 1000 µM
MIC [4]: > 1000 µM
IC50 (wild-type apo-KasA): > 100 µM
inhibition [6]: inactive
inhibition [7]: inactive

C=CCCCC1(C)SC(=O)C(C)=C1O (centres undefined)
inhibition [1]: inactive
inhibition [2]: inactive
inhibition [3]: < 30%
MIC (Escherichia coli): > 1000 µM
MIC [4]: > 1000 µM
IC50 (wild-type apo-KasA): > 100 µM
inhibition [6]: inactive
inhibition [7]: inactive

C/C=C/CC1(C)SC(O)=C(C)C1=O (centres undefined)
inhibition [1]: inactive
inhibition [2]: inactive
inhibition [3]: inactive
MIC (Escherichia coli): > 1000 µM
MIC [4]: > 1000 µM
inhibition [6]: inactive
inhibition [7]: inactive

CC1=C(O)SC(C)(CC(C)C)C1=O (centres undefined)
inhibition [1]: inactive
inhibition [2]: inactive
inhibition [3]: inactive
MIC (Escherichia coli): > 1000 µM
MIC [4]: > 1000 µM
inhibition [6]: inactive
inhibition [7]: inactive

C=CCC1(C)SC(=O)C(C)=C1O (centres undefined)
inhibition [1]: inactive
inhibition [2]: inactive
inhibition [3]: inactive
MIC (Escherichia coli): > 1000 µM
MIC [4]: > 1000 µM
inhibition [6]: inactive
inhibition [7]: inactive

C/C=C/C(C)=C/[C@@]1(C)SC(O)=C(C)C1=O
inhibition (Fatty acid synthase): inactive
MIC (Escherichia coli): 200 µM (≈ 44.9 µg/mL)
MIC [4]: 1000 µM (≈ 224 µg/mL)
IC50 [9]: 500 µM
IC50 [10]: 400 µM
IC50 (wild-type apo-KasA): 50 µM

CCCCCC1(C)SC(O)=C(C)C1=O (centres undefined)
inhibition [1]: inactive
inhibition [2]: inactive
inhibition [3]: inactive
MIC (Escherichia coli): > 1000 µM
MIC [4]: 500 µM (≈ 107 µg/mL)
inhibition [6]: inactive
inhibition [7]: inactive

C=C/C=C/C1(C)SC(=O)C(C)=C1O (centres undefined)
inhibition (Fatty acid synthase): inactive
MIC (Escherichia coli): 200 µM (≈ 39.3 µg/mL)
MIC [4]: 1000 µM (≈ 196 µg/mL)
IC50 [9]: 500 µM
IC50 [10]: 400 µM
IC50 (wild-type apo-KasA): 25 µM

CCC(C)C1(C)SC(O)=C(C)C1=O (centres undefined)
inhibition [1]: inactive
inhibition [2]: < 30%
inhibition [3]: inactive
MIC (Escherichia coli): > 1000 µM
MIC [4]: > 1000 µM
IC50 [5]: > 100 µM
inhibition [6]: inactive
inhibition [7]: inactive

CCC(CC)CC1(C)SC(O)=C(C)C1=O (centres undefined)
inhibition [1]: inactive
inhibition [2]: inactive
inhibition [3]: inactive
MIC (Escherichia coli): > 1000 µM
MIC [4]: 1000 µM (≈ 228 µg/mL)
inhibition [6]: inactive
inhibition [7]: inactive

C=CC(C)CC1(C)SC(O)=C(C)C1=O (centres undefined)
inhibition [1]: inactive
inhibition [2]: inactive
inhibition [3]: inactive
MIC (Escherichia coli): > 1000 µM
MIC [4]: > 1000 µM
inhibition [6]: inactive
inhibition [7]: inactive

CCCCCCCCC1(C)SC(O)=C(C)C1=O (centres undefined)
inhibition [1]: < 30%
inhibition [2]: < 30%
inhibition [3]: inactive
MIC (Escherichia coli): 200 µM (≈ 51.3 µg/mL)
MIC [4]: > 1000 µM
IC50 [8]: > 100 µM
IC50 [5]: > 100 µM
inhibition [6]: inactive
inhibition [7]: inactive

CC1=C(O)C(C)(Cc2ccc(Cl)cc2Cl)SC1=O (centres undefined)
inhibition [1]: inactive
inhibition [2]: < 30%
inhibition [3]: inactive
MIC (Escherichia coli): 150 µM (≈ 45.5 µg/mL)
MIC [4]: 500 µM (≈ 152 µg/mL)
IC50 [5]: > 100 µM
inhibition [6]: inactive
inhibition [7]: inactive

CC(C)=CCC/C(C)=C/CC/C(C)=C/CC1(C)SC(O)=C(C)C1=O (centres undefined)
inhibition [1]: < 30%
inhibition [2]: inactive
inhibition [3]: inactive
MIC (Escherichia coli): 200 µM (≈ 69.7 µg/mL)
MIC [4]: > 1000 µM
IC50 [8]: > 100 µM
IC50 [10]: > 100 µM
inhibition [6]: < 30%
inhibition [7]: inactive

CC1=C(O)C(C)(Cc2ccccc2)SC1=O (centres undefined)
inhibition [1]: inactive
inhibition [2]: inactive
inhibition [3]: inactive
MIC (Escherichia coli): > 1000 µM
MIC [4]: > 1000 µM
inhibition [6]: inactive
inhibition [7]: inactive

C=CCCCCC1(C)SC(=O)C(C)=C1O (centres undefined)
inhibition [1]: inactive
inhibition [2]: inactive
inhibition [3]: < 30%
MIC (Escherichia coli): > 1000 µM
MIC [4]: 1000 µM (≈ 226 µg/mL)
IC50 (wild-type apo-KasA): > 100 µM
inhibition [6]: inactive
inhibition [7]: inactive
